Measurements taken from ChEMBL document CHEMBL1201862, “PubChem BioAssay data set” (2004).
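Step 1: Grow cells in 96-well plates. Step 2: Expose to compound for 48 hours at 5 concentrations. Step 3: Interpolate endpoints linearly; if unreached, use highest concentration. Abbreviation: GI50, concentration required for 50% inhibition of growth.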 Active and inactive are the calls of the source. No stated cut-off is given here; in the data, active = GI50 up to about 1.1 µM and inactive = higher.

Legend:
Assay in all cases: NCI-60 cell line screen, 48 h
OVCAR-5 = test system: OVCAR-5
OVCAR-3 = test system: OVCAR-3
HCC 2998 = test system: HCC 2998
KM12 = test system: KM12
SF-268 = test system: SF-268
RPMI-8226 = test system: RPMI-8226
HCT-116 = test system: HCT-116
SW-620 = test system: SW-620
UACC-257 = test system: UACC-257
SF-539 = test system: SF-539
SNB-19 = test system: SNB-19
SR = test system: SR
RXF 393 = test system: RXF 393
CAKI-1 = test system: CAKI-1
786-0 = test system: 786-0
HT-29 = test system: HT-29
EKVX = test system: EKVX
PC-3 = test system: PC-3
DU-145 = test system: DU-145
Hs-578T = test system: Hs-578T

Row | SMILES | GI50 (OVCAR-5) | GI50 (OVCAR-3) | GI50 (HCC 2998) | GI50 (KM12) | GI50 (SF-268) | GI50 (RPMI-8226) | GI50 (HCT-116) | GI50 (SW-620) | GI50 (UACC-257) | GI50 (SF-539) | GI50 (SNB-19) | GI50 (SR) | GI50 (RXF 393) | GI50 (CAKI-1) | GI50 (786-0) | GI50 (HT-29) | GI50 (EKVX) | GI50 (PC-3) | GI50 (DU-145) | GI50 (Hs-578T)
1 | O=C1N=C(Nc2ccccc2Cl)SC1C(=O)Nc1ccc([N+](=O)[O-])cc1[N+](=O)[O-] (stereo unspecified) | > 100 µM (inactive) | > 100 µM (inactive) | > 100 µM (inactive) | > 100 µM (inactive) | > 100 µM (inactive) | > 100 µM (inactive) | > 100 µM (inactive) | > 100 µM (inactive) | > 100 µM (inactive) | > 100 µM (inactive) | > 100 µM (inactive) | > 100 µM (inactive) | > 100 µM (inactive) | > 100 µM (inactive) | > 100 µM (inactive) | > 100 µM (inactive) | > 100 µM (inactive) |  |  | 
2 | COc1ccc(/N=N/c2c(N)nn(C)c2N)cc1 | > 100 µM (inactive) | > 100 µM (inactive) | 0.319 µM (active) | > 100 µM (inactive) | > 100 µM (inactive) | > 100 µM (inactive) | > 100 µM (inactive) | > 100 µM (inactive) | > 100 µM (inactive) | > 100 µM (inactive) | > 100 µM (inactive) | 18.5 µM (inactive) | > 100 µM (inactive) | > 100 µM (inactive) | > 100 µM (inactive) | > 100 µM (inactive) | > 100 µM (inactive) |  |  | 
3 | N#CC(C#N)/N=C/c1ccncc1 | > 100 µM (inactive) | > 100 µM (inactive) | > 100 µM (inactive) | > 100 µM (inactive) | > 100 µM (inactive) | > 100 µM (inactive) | > 100 µM (inactive) | > 100 µM (inactive) | > 100 µM (inactive) | > 100 µM (inactive) |  |  | > 100 µM (inactive) | > 100 µM (inactive) | > 100 µM (inactive) | > 100 µM (inactive) | > 100 µM (inactive) | > 100 µM (inactive) | > 100 µM (inactive) | 
4 | O=C(/C=C/c1ccccc1)c1ccc(NCc2nc3ccccc3[nH]2)cc1 | 10.8 µM (inactive) | 2.8 µM (inactive) | 2.12 µM (inactive) | 1.95 µM (inactive) | 6.44 µM (inactive) | 2.29 µM (inactive) | 3.22 µM (inactive) | 2.75 µM (inactive) | 3.73 µM (inactive) | 2.17 µM (inactive) | 6.1 µM (inactive) | 16.1 µM (inactive) | 5.22 µM (inactive) | 10.1 µM (inactive) | 3.81 µM (inactive) | 2.58 µM (inactive) | 8.65 µM (inactive) |  |  | 
5 | CC(C)CC[C@H](O)[C@@H](C)[C@H]1[C@@H](OC2OC(C)C(O)C(O)C2O)C[C@H]2[C@@H]3CC=C4C[C@@H](O)CC[C@]4(C)[C@H]3[C@@H](O)C[C@]12C (stereo partly specified) | > 24.9 µM (inactive) | > 100 µM (inactive) | > 100 µM (inactive) | 3.28 µM (inactive) | 1.58 µM (inactive) | 0.0631 µM (active) | 0.258 µM (active) | 0.533 µM (active) | 1.12 µM (inactive) | 0.0337 µM (active) | > 100 µM (inactive) | 0.143 µM (active) | 0.124 µM (active) | 2.58 µM (inactive) | 0.084 µM (active) | 1.75 µM (inactive) | 11.4 µM (inactive) |  |  | 0.121 µM (active)
6 | O=C1[C@H]2ON(c3ccccc3)C(c3ccc(Cl)cc3)[C@H]2C(=O)N1c1ccc(Cc2ccc(N3C(=O)[C@@H]4ON(c5ccccc5)C(c5ccc(Cl)cc5)[C@@H]4C3=O)cc2)cc1 (stereo partly specified) | > 100 µM (inactive) | > 100 µM (inactive) | > 100 µM (inactive) | > 100 µM (inactive) | > 100 µM (inactive) | > 100 µM (inactive) | > 100 µM (inactive) | > 100 µM (inactive) | > 100 µM (inactive) | > 100 µM (inactive) | > 100 µM (inactive) | > 100 µM (inactive) | > 100 µM (inactive) | > 100 µM (inactive) | > 100 µM (inactive) | > 100 µM (inactive) | > 100 µM (inactive) |  |  | 
7 | Cn1c2cc(O)cc(O)c2c(=O)c2c([N+](=O)[O-])cccc21 | > 100 µM (inactive) | > 100 µM (inactive) | > 100 µM (inactive) | > 100 µM (inactive) | > 100 µM (inactive) | > 100 µM (inactive) | > 100 µM (inactive) | > 100 µM (inactive) | > 100 µM (inactive) | > 100 µM (inactive) | > 100 µM (inactive) | > 100 µM (inactive) | > 100 µM (inactive) | > 100 µM (inactive) | > 100 µM (inactive) | > 100 µM (inactive) | > 100 µM (inactive) |  |  | 
8 | CC(=O)O[C@H]1[C@@H](N2CCCCC2)C[C@H]2[C@@H]3CC=C4C[C@@H](N5CCCC5)CC[C@]4(C)[C@H]3CC[C@@]21C | 48.6 µM (inactive) | > 100 µM (inactive) | 14.3 µM (inactive) | > 100 µM (inactive) | > 100 µM (inactive) | 26.5 µM (inactive) | 64.3 µM (inactive) | > 100 µM (inactive) | 30.8 µM (inactive) | 17.8 µM (inactive) | > 100 µM (inactive) | 2.74 µM (inactive) | 32.7 µM (inactive) | > 100 µM (inactive) | 36.7 µM (inactive) | 15.3 µM (inactive) | > 100 µM (inactive) | 43.4 µM (inactive) |  | > 100 µM (inactive)
9 | [O-][S+]1Cc2ccccc2CS1 (stereo unspecified) | 18.2 µM (inactive) | 15.1 µM (inactive) | 29.7 µM (inactive) | 35.1 µM (inactive) | 22.9 µM (inactive) | 13.9 µM (inactive) | 20.5 µM (inactive) | 13.9 µM (inactive) | 14.7 µM (inactive) | 11.4 µM (inactive) | > 100 µM (inactive) | 20 µM (inactive) | 15.9 µM (inactive) | 13.9 µM (inactive) | 15.7 µM (inactive) | 15.8 µM (inactive) | 22.9 µM (inactive) |  |  | 
10 | CC(=O)C1=C(C)NC2C=CC=CN12 (stereo unspecified) | > 100 µM (inactive) | > 100 µM (inactive) | > 100 µM (inactive) | > 100 µM (inactive) | > 100 µM (inactive) | > 100 µM (inactive) | > 100 µM (inactive) | > 100 µM (inactive) | > 100 µM (inactive) | > 100 µM (inactive) | > 100 µM (inactive) | > 100 µM (inactive) | > 100 µM (inactive) | > 100 µM (inactive) | > 100 µM (inactive) | > 100 µM (inactive) | > 100 µM (inactive) |  |  | 
11 | CC(C)CS(=O)(=O)/C(=C(\c1ccc(Br)cc1)S(=O)(=O)CC(C)C)c1ccc(Br)cc1 | > 100 µM (inactive) | > 100 µM (inactive) | > 100 µM (inactive) | > 100 µM (inactive) | > 100 µM (inactive) | > 100 µM (inactive) | > 100 µM (inactive) | > 100 µM (inactive) | > 100 µM (inactive) | > 100 µM (inactive) | > 100 µM (inactive) | > 100 µM (inactive) | 90.2 µM (inactive) | > 100 µM (inactive) | > 100 µM (inactive) | > 100 µM (inactive) | > 100 µM (inactive) |  |  | 
12 | C1CSC[C@H]2COC[C@@H](CSCCS1)S2 | > 100 µM (inactive) | > 100 µM (inactive) | > 100 µM (inactive) | > 100 µM (inactive) | > 100 µM (inactive) |  | > 100 µM (inactive) | > 100 µM (inactive) | > 100 µM (inactive) | > 100 µM (inactive) | > 100 µM (inactive) | > 100 µM (inactive) |  |  | > 100 µM (inactive) | > 100 µM (inactive) | > 100 µM (inactive) | > 100 µM (inactive) | > 100 µM (inactive) | 
13 | COc1cc2c(cc1OC)C(C(CBr)CBr)N(C1CCCC1)CC2 (stereo unspecified) | > 100 µM (inactive) | > 100 µM (inactive) | > 100 µM (inactive) | > 100 µM (inactive) | > 100 µM (inactive) | > 100 µM (inactive) |  | > 100 µM (inactive) | > 100 µM (inactive) | > 100 µM (inactive) | > 100 µM (inactive) | > 100 µM (inactive) | > 100 µM (inactive) | > 100 µM (inactive) | > 100 µM (inactive) | > 100 µM (inactive) | > 100 µM (inactive) |  |  | 
14 | Cc1ccc(C)c(NC(=O)CC/C(=N\NC(=O)C(=O)NN)C(C)C(=O)c2ccc(O)cc2)c1 (stereo unspecified) | > 100 µM (inactive) | > 100 µM (inactive) | > 100 µM (inactive) | > 100 µM (inactive) | > 100 µM (inactive) | > 100 µM (inactive) | > 100 µM (inactive) | > 100 µM (inactive) | > 100 µM (inactive) | > 100 µM (inactive) | > 100 µM (inactive) | > 100 µM (inactive) | > 100 µM (inactive) | > 100 µM (inactive) | > 100 µM (inactive) | > 100 µM (inactive) | > 100 µM (inactive) |  |  | 
15 | COc1ccc(/C=C2\CCC(CCN(C)C)(C3=CCCC3)C2=O)cc1Br (stereo unspecified) | 14 µM (inactive) | 5.74 µM (inactive) | 2.33 µM (inactive) | 3.73 µM (inactive) | 7.03 µM (inactive) | 2.17 µM (inactive) | 3.46 µM (inactive) | 7.66 µM (inactive) | 2.43 µM (inactive) | 12.1 µM (inactive) | 9.44 µM (inactive) | 1.51 µM (inactive) | 2.22 µM (inactive) | 8.81 µM (inactive) | 3.78 µM (inactive) | 2.59 µM (inactive) | 0.0306 µM (active) |  |  | 
